The text below walks through data of US20250268877A1 (BIOGEN MA INC., priority 2020, published 2025).

Series [1] deals with MDR1 (Homo sapiens (Human), UniProt P08183). In words: MDR1-MDCK assay (apparent permeability, efflux ratio). The note with it: human, MDCK-MDR1, 1 μM, read-out: MDR1-MDCK_Efflux Ratio. The series is classed as in vitro ADME.
A short description of series [2]: Kinetic solubility assay (CLND), potassium phosphate buffer pH 6.8. The series is classed as physicochemical. The settings on record: pH 6.8, 2% DMSO, 24 hours at ambient temperature; for solubility at 24 h: potassium phosphate buffer, pH 6.8, aqueous buffer, kinetic from dmso stock.
Excerpt: • Inject filtrates into the nitrogen detector for quantification on Analiza's Automated Discovery Workstation (ADW). • Solubility results generated in μg/mL
Series [3] deals with IRAK4 (Homo sapiens (Human), UniProt Q9NWZ3). In words: IRAK4 2-hour 1 mM ATP Biochemical Assay (MesoScale Detection format). The note with it: 100 pM IRAK4, read-out: IRAK4 IC50.

Values after ≈ are worked out from the molar mass of the structure shown.

Chain of MDR1 (P08183 whole entry): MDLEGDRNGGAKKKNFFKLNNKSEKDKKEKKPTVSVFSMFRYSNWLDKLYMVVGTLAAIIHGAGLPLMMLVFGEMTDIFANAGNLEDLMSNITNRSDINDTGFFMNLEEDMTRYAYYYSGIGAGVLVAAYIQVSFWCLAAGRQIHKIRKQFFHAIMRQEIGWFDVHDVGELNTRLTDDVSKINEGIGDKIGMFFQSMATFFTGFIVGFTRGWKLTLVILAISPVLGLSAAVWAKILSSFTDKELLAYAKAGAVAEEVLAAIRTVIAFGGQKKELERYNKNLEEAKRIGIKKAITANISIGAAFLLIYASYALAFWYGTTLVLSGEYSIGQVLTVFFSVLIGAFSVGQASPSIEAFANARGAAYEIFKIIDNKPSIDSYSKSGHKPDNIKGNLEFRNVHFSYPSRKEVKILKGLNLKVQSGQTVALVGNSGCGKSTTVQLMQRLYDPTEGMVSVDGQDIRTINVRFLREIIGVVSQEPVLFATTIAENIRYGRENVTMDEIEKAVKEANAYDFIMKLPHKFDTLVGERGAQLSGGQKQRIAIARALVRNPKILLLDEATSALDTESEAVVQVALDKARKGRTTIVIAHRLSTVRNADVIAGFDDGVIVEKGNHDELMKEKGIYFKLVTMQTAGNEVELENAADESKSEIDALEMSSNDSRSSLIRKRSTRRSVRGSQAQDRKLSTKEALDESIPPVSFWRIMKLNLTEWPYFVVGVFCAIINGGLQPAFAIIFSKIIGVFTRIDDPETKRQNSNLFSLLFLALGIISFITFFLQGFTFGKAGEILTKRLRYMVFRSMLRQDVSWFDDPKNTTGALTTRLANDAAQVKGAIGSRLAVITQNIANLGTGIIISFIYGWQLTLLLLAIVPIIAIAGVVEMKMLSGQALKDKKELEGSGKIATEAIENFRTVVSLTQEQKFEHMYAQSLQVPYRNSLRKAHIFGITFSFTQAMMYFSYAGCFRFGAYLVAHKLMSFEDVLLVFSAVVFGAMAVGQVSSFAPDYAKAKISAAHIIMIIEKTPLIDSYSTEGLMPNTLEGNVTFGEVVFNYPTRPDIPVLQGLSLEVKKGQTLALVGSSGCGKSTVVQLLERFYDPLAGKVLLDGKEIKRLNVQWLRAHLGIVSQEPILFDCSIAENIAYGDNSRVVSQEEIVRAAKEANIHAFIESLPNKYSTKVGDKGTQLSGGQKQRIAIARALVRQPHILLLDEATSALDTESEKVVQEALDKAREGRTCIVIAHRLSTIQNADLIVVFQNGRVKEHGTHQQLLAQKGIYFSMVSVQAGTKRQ
Chain of IRAK4 (Q9NWZ3 whole entry): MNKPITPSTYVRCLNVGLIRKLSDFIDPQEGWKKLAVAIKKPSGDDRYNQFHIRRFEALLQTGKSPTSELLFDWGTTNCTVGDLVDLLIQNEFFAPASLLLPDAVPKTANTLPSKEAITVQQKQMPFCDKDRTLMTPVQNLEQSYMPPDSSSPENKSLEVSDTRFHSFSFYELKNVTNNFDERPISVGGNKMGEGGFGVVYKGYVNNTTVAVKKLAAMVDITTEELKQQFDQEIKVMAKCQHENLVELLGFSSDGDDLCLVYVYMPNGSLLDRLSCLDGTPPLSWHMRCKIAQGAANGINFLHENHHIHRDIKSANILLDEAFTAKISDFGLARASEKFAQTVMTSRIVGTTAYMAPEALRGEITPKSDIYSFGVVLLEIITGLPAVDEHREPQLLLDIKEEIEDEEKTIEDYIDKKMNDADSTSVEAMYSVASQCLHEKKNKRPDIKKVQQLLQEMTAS

With `CC12CC(n3cc4cc(C(=O)Nc5cccn([C@@H]6C[C@@H]6F)c5=O)c(OC5CCC5)nc4n3)(CO1)C2` (racemic) [Example 25, 6-cyclobutoxy-N-(1-(cis-2-fluorocyclopropyl)-2-oxo-1,2-dihydropyridin-3-yl)-2-(1-methyl-2-oxabicyclo[2.1.1]hexan-4-yl)-2H-pyrazolo[3,4-b]pyridine-5-carboxamide], the efflux ratio at 120 min, 1 μM in series [1] was 2.71. Also, in series [2], the solubility at 24 h turned out to be 29.2 µg/mL (≈ 60.9 µM). Besides, the IC50 in series [3] amounted to 300 pM.

With `COCC12CC(n3cc4cc(C(=O)Nc5cccn([C@@H]6C[C@H]6F)c5=O)c(OC(C)C)cc4n3)(CO1)C2` (single isomer, unassigned) [Example 55], the efflux ratio at 120 min, 1 μM in series [1] worked out at 3.71. The solubility at 24 h in series [2] amounted to 60.5 µg/mL (≈ 122 µM). The IC50 in series [3] stood at 800 pM.

Regarding `COCC12CC(n3cc4cc(C(=O)Nc5cccn([C@H]6C[C@@H]6F)c5=O)c(OC(C)C)cc4n3)(CO1)C2` (single isomer, unassigned) [Example 56], the efflux ratio at 120 min, 1 μM in series [1] was 3.31. For the same compound, in series [2], the solubility at 24 h was determined as 63.9 µg/mL (≈ 129 µM). The IC50 in series [3] is 800 pM.

With `COCC12CC(n3cc4cc(C(=O)Nc5cccn([C@H]6C[C@@H]6F)c5=O)c(OC5CCC5)cc4n3)(CO1)C2` (single isomer, unassigned) [Example 58], in series [1], the efflux ratio at 120 min, 1 μM is 4.05. Further, in series [2], the solubility at 24 h amounted to 52.3 µg/mL (≈ 103 µM). The IC50 in series [3] came out at 1500 pM.

Take `CC(C)Oc1cc2nn([C@@]34CC[C@@](C)(C3)OC4)cc2cc1C(=O)Nc1cccn([C@H]2C[C@@H]2F)c1=O` (single isomer, unassigned) [Example 60]: in series [1], the efflux ratio at 120 min, 1 μM was found to be 1.75. This compound also registered a solubility at 24 h in series [2] of 52.9 µg/mL (≈ 110 µM). For the same compound, the IC50 in series [3] was found to be 500 pM.

`CC(C)Oc1cc2nn([C@]34CC[C@](C)(C3)OC4)cc2cc1C(=O)Nc1cccn([C@@H]2C[C@H]2F)c1=O` (single isomer, unassigned) [Example 61]: in series [1], the efflux ratio at 120 min, 1 μM came to 1.43. In series [2], this compound yielded a solubility at 24 h of 51.5 µg/mL (≈ 107 µM). Also, in series [3], the IC50 was determined as 500 pM.

Turning to `CC(C)Oc1cc2nn([C@]34CC[C@](C)(C3)OC4)cc2cc1C(=O)Nc1cccn([C@H]2C[C@@H]2F)c1=O` (single isomer, unassigned) [Example 62], in series [1], the efflux ratio at 120 min, 1 μM came out at 1.6. This compound also showed a solubility at 24 h in series [2] of 56.1 µg/mL (≈ 117 µM). Besides, in series [3], the IC50 turned out to be 600 pM.

Consider `COCC12CC(n3cc4cc(C(=O)Nc5cccn([C@@H]6C[C@H]6F)c5=O)c(OC(C)C)nc4n3)(CO1)C2` (single isomer, unassigned) [Example 63], for which the efflux ratio at 120 min, 1 μM in series [1] came out at 5.06. In addition, the solubility at 24 h in series [2] was determined as 58.8 µg/mL (≈ 118 µM). Besides, in series [3], the IC50 was 500 pM.

For `COCC12CC(n3cc4cc(C(=O)Nc5cccn([C@@H]6C[C@H]6F)c5=O)c(OC5CCC5)nc4n3)(CO1)C2` (single isomer, unassigned) [Example 65], in series [1], the efflux ratio at 120 min, 1 μM is 3.22. Also, in series [2], the solubility at 24 h was 13 µg/mL (≈ 25.5 µM). For the same compound, in series [3], the IC50 came to 800 pM.

`COCC12CC(n3cc4cc(C(=O)Nc5cccn([C@H]6C[C@@H]6F)c5=O)c(OC5CCC5)nc4n3)(CO1)C2` (single isomer, unassigned) [Example 66]: the efflux ratio at 120 min, 1 μM in series [1] was 3.38. Besides, the solubility at 24 h in series [2] worked out at 12.3 µg/mL (≈ 24.1 µM). In series [3], the IC50 was found to be 800 pM.

On to `O=C(Nc1cccn([C@H]2C[C@H]2F)c1=O)c1cc2cn([C@@]34CC[C@@H](C3)OC4)nc2nc1OC1CC1` (single isomer, unassigned) [Example 87], for which, in series [1], the efflux ratio at 120 min, 1 μM stood at 7.93. In series [2], this compound displayed a solubility at 24 h of 62.4 µg/mL (≈ 134 µM). In series [3], the IC50 is 200 pM.

Turning to `C[C@@H]1C[C@@H]1n1cccc(NC(=O)c2cc3cn([C@@]45CC[C@@H](C4)OC5)nc3nc2OC2CC2)c1=O` (single isomer, unassigned) [Example 93], in series [1], the efflux ratio at 120 min, 1 μM stood at 2.5. In addition, the “Solubility pH 6.8” value in series [2] is 47.6 ug/mL. Further, the IC50 in series [3] amounted to 500 pM.

Compound `CC12CC(n3cc4cc(C(=O)Nc5cccn(C6CC6)c5=O)c(OC5CCC5)cc4n3)(CO1)C2` [Example 1, 6-Cyclobutoxy-N-(1-cyclopropyl-2-oxo-1,2-dihydropyridin-3-yl)-2-(1-methyl-2-oxabicyclo[2.1.1]hexan-4-yl)-2H-indazole-5-carboxamide] yielded a solubility at 24 h in series [2] of 71 µg/mL (≈ 154 µM). The IC50 in series [3] is 900 pM.

With `CC(C)Oc1cc2nn([C@]34CC[C@](C)(C3)OC4)cc2cc1C(=O)Nc1cccn(C2CC2)c1=O` [Example 3, N-(1-cyclopropyl-2-oxo-1,2-dihydropyridin-3-yl)-6-isopropoxy-2-((1R,4R)-1-methyl-2-oxabicyclo[2.2.1]heptan-4-yl)-2H-indazole-5-carboxamide], the efflux ratio at 120 min, 1 μM in series [1] came to 1.59. In addition, the solubility at 24 h in series [2] came out at 7.9 µg/mL (≈ 17.1 µM). The IC50 in series [3] came to 500 pM.

With `C[C@@]12CC[C@@](n3cc4cc(C(=O)Nc5cccn(C6CC6)c5=O)c(OC5CCC5)nc4n3)(CO1)C2` [Example 6, 6-cyclobutoxy-N-(1-cyclopropyl-2-oxo-1,2-dihydropyridin-3-yl)-2-((1S,4S)-1-methyl-2-oxabicyclo[2.2.1]heptan-4-yl)-2H-pyrazolo[3,4-b]pyridine-5-carboxamide], the efflux ratio at 120 min, 1 μM in series [1] worked out at 1.59. The solubility at 24 h in series [2] was found to be 5.57 µg/mL (≈ 11.7 µM). In addition, in series [3], the IC50 turned out to be 400 pM.

For `C[C@]12CC[C@](n3cc4cc(C(=O)Nc5cccn(C6CC6)c5=O)c(OC5CCC5)nc4n3)(CO1)C2` [Example 7, 6-cyclobutoxy-N-(1-cyclopropyl-2-oxo-1,2-dihydropyridin-3-yl)-2-((1R,4R)-1-methyl-2-oxabicyclo[2.2.1]heptan-4-yl)-2H-pyrazolo[3,4-b]pyridine-5-carboxamide], in series [1], the efflux ratio at 120 min, 1 μM was determined as 1.43. For the same compound, in series [2], the solubility at 24 h amounted to 10.3 µg/mL (≈ 21.6 µM). Moreover, the IC50 in series [3] amounted to 700 pM.

In the case of `CC(C)Oc1nc2nn(C3CCOCC3)cc2cc1C(=O)Nc1cccn(C2CC2)c1=O` [Example 13], in series [1], the efflux ratio at 120 min, 1 μM is 3.41. The same compound yielded a solubility at 24 h in series [2] of 19.8 µg/mL (≈ 45.3 µM). In series [3], the IC50 came to 700 pM.

Consider `CC[C@@H](C)Oc1nc2nn(C34COC(C)(C3)C4)cc2cc1C(=O)Nc1cccn(C2CC2)c1=O` [Example 14, (R)-6-(sec-butoxy)-N-(1-cyclopropyl-2-oxo-1,2-dihydropyridin-3-yl)-2-(1-methyl-2-oxabicyclo[2.1.1]hexan-4-yl)-2H-pyrazolo[3,4-b]pyridine-5-carboxamide], for which, in series [1], the efflux ratio at 120 min, 1 μM is 2.27. The same compound displayed a solubility at 24 h in series [2] of 43 µg/mL (≈ 92.8 µM). In addition, the IC50 in series [3] is 1400 pM.

With `CC(C)Oc1nc2nn([C@H]3CCCOC3)cc2cc1C(=O)Nc1cccn(C2CC2)c1=O` [Example 16, (S)—N-(1-cyclopropyl-2-oxo-1,2-dihydropyridin-3-yl)-6-isopropoxy-2-(tetrahydro-2H-pyran-3-yl)-2H-pyrazolo[3,4-b]pyridine-5-carboxamide], the efflux ratio at 120 min, 1 μM in series [1] stood at 2.09. Further, in series [2], the solubility at 24 h is 44.6 µg/mL (≈ 102 µM). The 50% inhibitory concentration (IC50) in series [3] stood at 200 pM.

On to `CC12CC(n3cc4cc(C(=O)Nc5cccn(C6CC6)c5=O)c(OC5CCC5)nc4n3)(CO1)C2` [Example 24, 6-cyclobutoxy-N-(1-cyclopropyl-2-oxo-1,2-dihydropyridin-3-yl)-2-(1-methyl-2-oxabicyclo[2.1.1]hexan-4-yl)-2H-pyrazolo[3,4-b]pyridine-5-carboxamide], for which the efflux ratio at 120 min, 1 μM in series [1] was found to be 2.53. Further, in series [2], the solubility at 24 h was found to be 5.53 µg/mL (≈ 12 µM). The IC50 in series [3] is 400 pM.

As for `CC12CC(n3cc4cc(C(=O)Nc5cccn([C@@H]6C[C@@H]6F)c5=O)c(OC5CCC5)nc4n3)(CO1)C2` [Example 26, 6-cyclobutoxy-N-(1-((1R,2S)-2-fluorocyclopropyl)-2-oxo-1,2-dihydropyridin-3-yl)-2-(1-methyl-2-oxabicyclo[2.1.1]hexan-4-yl)-2H-pyrazolo[3,4-b]pyridine-5-carboxamide], the efflux ratio at 120 min, 1 μM in series [1] is 4.05. In series [2], the solubility at 24 h worked out at 1.6 µg/mL (≈ 3.34 µM). The IC50 in series [3] is 7300 pM.

Turning to `CC(C)Oc1nc2nn(C34COC(C3)C4)cc2cc1C(=O)Nc1cccn(C2CC2)c1=O` [Example 28, 2-(2-oxabicyclo[2.1.1]hexan-4-yl)-N-(1-cyclopropyl-2-oxo-1,2-dihydropyridin-3-yl)-6-isopropoxy-2H-pyrazolo[3,4-b]pyridine-5-carboxamide], the efflux ratio at 120 min, 1 μM in series [1] is 4.72. The solubility at 24 h in series [2] was found to be 2.7 µg/mL (≈ 6.2 µM). Besides, the IC50 in series [3] was 400 pM.

As for `COCC12CCC(n3cc4cc(C(=O)Nc5cccn(C6CC6)c5=O)c(OC(C)C)nc4n3)(CO1)C2` (stereo not shown) [Example 29, N-(1-cyclopropyl-2-oxo-1,2-dihydropyridin-3-yl)-6-isopropoxy-2-(1-(methoxymethyl)-2-oxabicyclo[2.2.1]heptan-4-yl)-2H-pyrazolo[3,4-b]pyridine-5-carboxamide], in series [1], the efflux ratio at 120 min, 1 μM was 2.79. Moreover, in series [2], the solubility at 24 h came to 74.2 µg/mL (≈ 150 µM). Also, the IC50 in series [3] turned out to be 200 pM.

Consider `COC[C@]12CC[C@](n3cc4cc(C(=O)Nc5cccn(C6CC6)c5=O)c(OC(C)C)nc4n3)(CO1)C2` [Example 31, N-(1-cyclopropyl-2-oxo-1,2-dihydropyridin-3-yl)-6-isopropoxy-2-((1R,4R)-1-(methoxymethyl)-2-oxabicyclo[2.2.1]heptan-4-yl)-2H-pyrazolo[3,4-b]pyridine-5-carboxamide], for which the efflux ratio at 120 min, 1 μM in series [1] was 2.5. The compound also yielded a solubility at 24 h in series [2] of 61.8 µg/mL (≈ 125 µM). For the same compound, in series [3], the IC50 amounted to 200 pM.

As to `CC(C)Oc1nc2nn(C34COC(C)(C3)C4)cc2cc1C(=O)Nc1cccn([C@H]2C[C@H]2F)c1=O` [Example 84, N-(1-((1S,2R)-2-fluorocyclopropyl)-2-oxo-1,2-dihydropyridin-3-yl)-6-isopropoxy-2-(1-methyl-2-oxabicyclo[2.1.1]hexan-4-yl)-2H-pyrazolo[3,4-b]pyridine-5-carboxamide], in series [1], the efflux ratio at 120 min, 1 μM was 3.06. Besides, the solubility at 24 h in series [2] turned out to be 15.8 µg/mL (≈ 33.8 µM).
